One experiment has as its system oil palm. The experiment is described as follows: Field study of cumulative loose fruit (CLF) and cumulative loose mass (CLM) after one-time bunch-directed spray. The experiment is classed as in vivo, oil palm (Compact×Ghana plants). The note with it: one spray 100 mL/bunch; for Cumulative Loose Mass / % Difference with UTC (Cumulative Loose Fruit) / % Difference with UTC (Cumulative Loose Mass): 14 days; for % Difference with UTC (Cumulative Loose Fruit) / % Difference with UTC (Cumulative Loose Mass): positive = reduction; for Cumulative Loose Fruit: counted for 14 days. From the text:
Plant Material: A field study was executed in a plantation in Costa Rica to compare the effects of one-time bunch-directed applications of: (1) water sprayed untreated control (UTC); (2) AVG-HCl at 500 ppm (59.5 g) active ingredient (a.i.); (3) AVG-HCl at 125 ppm (14.9 g) a.i.; (4) 200 ppm (0.2 g) a.i. of NAA; (5) AVG-HCl at 500 ppm (59.5 g) a.i. and 200 ppm (0.2 g) a.i. of NAA; and (6) AVG-HCl at 125 ppm (14.9 g) a.i. and 200 ppm (0.2 g) a.i. of NAA. In this study, AVG was provided in a formulation as AVG-HCl. NAA was provided as the sodium salt at concentrations of 20% and 3.5%. For each treatment, 24 palms per treatment were randomly selected covering about 15 hectares. The palms were Compact×Ghana plants and 2.5 to 3 years old. Treatment Application: A manual DEA-2000 sprayer was used to spray all treatments (100 mL/bunch) to bunches with 1 to 3 loose fruits. The time required to spray each bunch was about 11 to 20 seconds depending on the sprayer. Sprays were conducted only once per bunch. Twelve bunches were sprayed on Oct. 28, 2014 and the other 12 on Nov. 4, 2014. Cumulative loose fruit (CLF) and cumulative loose mass (CLM) counts were determined at daily basis with exception of Sundays for 14 days in order to objectively quantify fruit abscission. An electronic balance was used to weight out all fruit. All loose fruit on the bunch, branches and on the ground was counted and weighed.

The test system of a further experiment is oil palms. The experiment in a line: Oil yield of oil palms after application before harvest of the fruit. The experiment is classed as in vivo, oil palm. The note with it: applied before harvest of the fruit.
The subject of another experiment is oil palm fruit. The following applies: preharvest application to attached bunches of oil palm fruit; cited from earlier work.

Consider `NCCO/C=C/[C@H](N)C(=O)O` (stereo in doubt) [AVG, [S]-trans-2-amino-4-(2-aminoethoxy)-3-butenoic acid], for which, in the experiment with oil palm (AVG-HCl 125 ppm (14.9 g) a.i.), the “Cumulative Loose Mass” value came out at 2028 g, the “% Difference with UTC (Cumulative Loose Fruit)” value was determined as 3.9%, the “% Difference with UTC (Cumulative Loose Mass)” value is reported as −5.4% and the “Cumulative Loose Fruit” value is on record as 160.7. Further, in the experiment on oil palm (AVG-HCl 500 ppm (59.5 g) a.i.), the “Cumulative Loose Mass” value is 1154 g, the “% Difference with UTC (Cumulative Loose Fruit)” value stood at 48.5%, the “% Difference with UTC (Cumulative Loose Mass)” value was found to be 40% and the “Cumulative Loose Fruit” value is 86.1.

For the compound `O=C(O)Cc1cccc2ccccc12` [NAA, 1-naphthaleneacetic acid], the “oil yield of oil palms” value in the experiment with oil palms is given as “increases the oil yield”. In addition, in the experiment on oil palm (NAA 200 ppm (0.2 g) a.i.), the “Cumulative Loose Mass” value is 1501 g, the “% Difference with UTC (Cumulative Loose Fruit)” value is 31.3%, the “% Difference with UTC (Cumulative Loose Mass)” value is given as 22% and the “Cumulative Loose Fruit” value is on record as 114.8.

For the compound `O=P(O)(O)CCCl` [ethephon, 2-chloroethyl phosphonic acid], the “increase of oil content” value in the experiment with oil palm fruit was 7%.

Consider `C=C1C[C@]23C[C@@]1(O)CC[C@H]2[C@@]12C=C[C@H](O)[C@@](C)(C(=O)O1)[C@H]2[C@@H]3C(=O)O` [gibberellic acid], for which the “oil yield of oil palms” value in the experiment with oil palms is “inconsistent and unsatisfactory oil yields”.

The record behind these values is patent publication US9839215B2, “Methods for increasing oil palm yield” (Valent BioSciences Corporation, priority 2015, dated 2017).
